Test results from the supplement of paper PMC8671470.

Assays:
Settings in all cases: 72 h
[1] = tested on: KCL-22
Outline: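 Seeded in RPMI 1640 at densities within the linear growth range, fifteen myeloid leukaemia cell lines were dispensed into 384-well plates with acoustically pre-printed compounds spanning five tenfold doses from 1 to 10,000 nM, in duplicate. The plates were kept for 72 h at 37 °C in 5% CO2 before luminescent ATP viability was measured and normalised to vehicle and to a positive control at 10 µM. Curves were fitted with a four-parameter log-logistic model. The IC50 was taken from those curves.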

[2] = tested on: HL-60; assay: cell viability (% survival relative to DMSO control); higher = less cytotoxic
Outline: (§1)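 Four-parameter log-logistic fits in drc and PharmacoGx supplied area under the curve where it is given. Underlying viability came from CellTiter-Glo, normalised to DMSO and proteasome-inhibitor wells, with the proteasome inhibitor at 10 μM. HL-60 cells in RPMI 1640 plus 10% FBS had been rescreened against the full library at five tenfold concentrations of 1–10,000 nM, in duplicate on 384-well plates, with DMSO or 100 nM of one of three metabolic inhibitors, for 72 h at 37 °C, 5% CO2.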

[3] = tested on: BV-173; assay: cell viability (% survival relative to DMSO control, bortezomib = 0%); higher = less cytotoxic
Outline: (§2)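 Fifteen myeloid leukaemia cell lines were exposed to compounds at 1, 10, 100, 1000 or 10000 nM in 384-well plates for 72 h at 37 °C and 5% CO2. Viability was read by CellTiter-Glo luminescence and normalised, with vehicle as 100% and a 10 µM positive control as 0%. Values are percent survival averaged over duplicates.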

[4] = tested on: HEL; assay: as above
Outline: as §2

[5] = tested on: HL-60; assay: as above
Outline: as §2

[6] = tested on: K-562; assay: as above
Outline: as §2

[7] = tested on: KCL-22; assay: as above
Outline: as §2

[8] = tested on: KG-1; assay: as above
Outline: as §2

[9] = tested on: KU-812; assay: as above
Outline: as §2

[10] = tested on: LAMA-84; assay: as above
Outline: as §2

[11] = tested on: ML-2; assay: as above
Outline: as §2

[12] = tested on: MOLM-13; assay: as above
Outline: as §2

[13] = tested on: MV4-11; assay: as above
Outline: as §2

[14] = tested on: Mono-Mac-6; assay: as above
Outline: as §2

[15] = tested on: NOMO-1; assay: as above
Outline: as §2

[16] = tested on: SHI-1; assay: as above
Outline: as §2

[17] = tested on: THP-1; assay: as above
Outline: as §2

[18] = tested on: HL-60; assay: area under dose-response curve (viability, 1 nM-10 uM) (fraction (0-1)); higher = more sensitive
Outline: as §1

C=C1NC(=O)c2cc(CN(C)c3ccc(C(=O)N[C@@H](CCC(=O)O)C(=O)O)s3)ccc2N1 [Raltitrexed]
Settings	IC50 (cell viability) [µM]
[1]	0.0698

cell viability [%], [2]
Settings	0.001 µM	0.01 µM	0.1 µM	1 µM	10 µM
co-treatment: AZD3965 100 nM	99.38	74.1	76.3	25.7	24.2
co-treatment: DMSO vehicle	101	88.5	55.7	31.6	27.6
co-treatment: GSK2194069 100 nM	98.5	79.7	53.7	30.6	23.3
co-treatment: pictilisib 100 nM	101	78.4	51.8	34.2	26.11

Settings	area under dose-response curve, co-treatment: AZD3965 100 nM	area under dose-response curve, co-treatment: DMSO vehicle	area under dose-response curve, co-treatment: GSK2194069 100 nM	area under dose-response curve, co-treatment: pictilisib 100 nM	cell viability, 1 nM [%]	cell viability, 10 nM [%]	cell viability, 100 nM [%]	cell viability, 1000 nM [%]	cell viability, 10000 nM [%]
[3]	–	–	–	–	95.6	163	8.17	1.32	3.9
[4]	–	–	–	–	100	109	6.54	6.59	7.77
[5]	–	–	–	–	108	127	116	6.78	6.89
[6]	–	–	–	–	104	121	86.5	49.2	52.4
[7]	–	–	–	–	103	107	45.4	21.2	22
[8]	–	–	–	–	101	103	101	100	102
[9]	–	–	–	–	94.1	104	37.7	34.6	39.1
[10]	–	–	–	–	97.1	108	27.7	22.4	26.6
[11]	–	–	–	–	93.9	121	61.6	5.21	6.92
[12]	–	–	–	–	118	145	5.74	1.25	1.81
[13]	–	–	–	–	108	110	48.1	4.34	6.68
[14]	–	–	–	–	94.2	108	19.4	8.75	9.59
[15]	–	–	–	–	99.5	113	51.3	34.8	31.4
[16]	–	–	–	–	106	118	99.8	38.4	43.3
[17]	–	–	–	–	92.9	118	61.4	40.7	46.1
[18]	0.598	0.412	0.42	0.432	–	–	–	–	–

Cc1nc(-c2ccc(OCC(C)C)c(C#N)c2)sc1C(=O)O [Febuxostat]
Settings	IC50 (cell viability) [µM]
[1]	> 10

cell viability [%], [2]
Settings	0.001 µM	0.01 µM	0.1 µM	1 µM	10 µM
co-treatment: AZD3965 100 nM	96.8	104	104	98.3	98.16
co-treatment: DMSO vehicle	96.5	99.3	103	95.6	104.8
co-treatment: GSK2194069 100 nM	99.9	93.2	94.47	95.2	98.7
co-treatment: pictilisib 100 nM	98.2	100	107	95.4	96

Settings	area under dose-response curve, co-treatment: AZD3965 100 nM	area under dose-response curve, co-treatment: DMSO vehicle	area under dose-response curve, co-treatment: GSK2194069 100 nM	area under dose-response curve, co-treatment: pictilisib 100 nM	cell viability, 1 nM [%]	cell viability, 10 nM [%]	cell viability, 100 nM [%]	cell viability, 1000 nM [%]	cell viability, 10000 nM [%]
[3]	–	–	–	–	103	101	79.9	99.7	82.6
[4]	–	–	–	–	97	97.8	106	105	84.5
[5]	–	–	–	–	103	85.2	114	91.3	99.3
[6]	–	–	–	–	100	91.3	84.2	113	87.7
[7]	–	–	–	–	92.5	103	98	104	80.1
[8]	–	–	–	–	102	97.5	103	94.6	90.4
[9]	–	–	–	–	101	97.3	94	98.4	83.9
[10]	–	–	–	–	102	95.7	92.4	105	101
[11]	–	–	–	–	94	96	100	90.2	86.8
[12]	–	–	–	–	90.6	102	141	103	94.9
[13]	–	–	–	–	88.2	104	99.1	105	116
[14]	–	–	–	–	91.7	102	99	92.9	92.7
[15]	–	–	–	–	96.3	97.7	98.5	99.6	93.1
[16]	–	–	–	–	87	97.7	99	99.4	93.8
[17]	–	–	–	–	102	92.4	95.1	99.6	93.6
[18]	0.0351	< 0.0301	< 0.0301	0.0462	–	–	–	–	–

O=C(/C=C/c1cccnc1)NCCCCC1CCN(C(=O)c2ccccc2)CC1 [Daporinad]
Settings	IC50 (cell viability) [µM]
[1]	0.00331

cell viability [%], [2]
Settings	0.001 µM	0.01 µM	0.1 µM	1 µM	10 µM
co-treatment: AZD3965 100 nM	101	17.8	1.54	0.351	0.166
co-treatment: DMSO vehicle	93.6	37.7	3.2	0.816	0.766
co-treatment: GSK2194069 100 nM	86.2	31.1	2.41	0.71	1.09
co-treatment: pictilisib 100 nM	89.7	42	2.3	0.651	2.01

Settings	area under dose-response curve, co-treatment: AZD3965 100 nM	area under dose-response curve, co-treatment: DMSO vehicle	area under dose-response curve, co-treatment: GSK2194069 100 nM	area under dose-response curve, co-treatment: pictilisib 100 nM	cell viability, 1 nM [%]	cell viability, 10 nM [%]	cell viability, 100 nM [%]	cell viability, 1000 nM [%]	cell viability, 10000 nM [%]
[3]	–	–	–	–	15.7	1.15	0.0754	0.00943	0.321
[4]	–	–	–	–	85.7	2.97	1.75	1.48	1.85
[5]	–	–	–	–	63.1	6.64	-0.363	-0.298	-0.289
[6]	–	–	–	–	86.5	20.4	1.83	0.861	1.37
[7]	–	–	–	–	83.9	10.3	1.38	1.35	1.59
[8]	–	–	–	–	88	25.3	10.8	8.29	7.46
[9]	–	–	–	–	71.9	14.8	5.16	5.8	4.77
[10]	–	–	–	–	83.1	6.18	2.02	1.79	2.17
[11]	–	–	–	–	66	1.63	0.115	0.00307	-0.274
[12]	–	–	–	–	69.1	15.7	0.0519	0.204	-0.318
[13]	–	–	–	–	25.5	0.401	0.0312	-0.345	-0.425
[14]	–	–	–	–	99.2	75.4	16.7	16.4	0.909
[15]	–	–	–	–	34.5	1.36	0.217	0.164	0.267
[16]	–	–	–	–	86.7	107	83	68.9	75.5
[17]	–	–	–	–	85.6	120	102	104	101
[18]	0.825	0.78	0.79	0.75	–	–	–	–	–
